According to US5607850A, “Enzyme from microbial source: phthalyl amidase” (Eli Lilly and Company, priority 1995, dated 1997):
Where two headings read alike, the source gives them in different places.

Key:
phthalyl amidase [1] = target: T1, phthalyl amidase (Xanthobacter agilis, UniProt P0C2Y0); test: Kinetic parameters for phthalyl amidase; assay type: biochemical; settings: Table 12; 32° C., pH 8.2
Experimental: The kinetic parameters of the enzyme were determined for several representative substrates. Compounds II, XVII, and XVIII were tested using 0.9 μg/ml of enzyme. Compounds III and XI were tested using 5.14 μg/ml of enzyme. Substrate concentrations were between 0 and 25 mM and reaction time was between 2 and 20 minutes, depending on the substrate used. All reactions were run at 32° C. and at pH 8.2. Km is the Michaelis constant for enzyme kinetics, Vmax is the maximal rate of reaction calculated by the Michaelis-Menten equation, and Kcat is the catalytic constant for an enzyme reaction.

phthalyl amidase [2] = target: T1, phthalyl amidase; test: Chiral and additional substrate selectivity of phthalyl amidase (Table 13); assay type: biochemical; settings: 30° C.; for Relative Activity: Table 13
Experimental: Several additional substrates were tested in a total volume of 1 ml. […] Reactions were stopped by the addition of methanol, and phthalic acid formation was monitored by HPLC.

phthalyl amidase [3] = target: T1, phthalyl amidase; test: Preparative scale enzymatic hydrolysis to carbacephem nucleus; assay type: biochemical; settings: 510 minutes, 30° C., pH 8.0, 80 units enzyme
Experimental: Thus, either compound XXXIII or III can be used to prepare the carbacephem nucleus (XXXIV). Substrate (5 grams) was added to 20 ml of deionized water and the pH of the solution was adjusted to 8.0 with concentrated ammonium hydroxide. Phthalyl amidase, 80 units as determined using the chromogenic substrate (II), was added to start the reaction. Temperature was maintained at 30° C. and the pH maintained at 8.0 by adding 2 N ammonium hydroxide. […] The pH of the reaction was lowered to 5.0 thereby precipitating the carbacephem nucleus. Isolated yields of the nucleus were between 65% and 77%. [drawing 26]

phthalyl amidase [4] = target: T1, phthalyl amidase; test: Substrate specificity of phthalyl amidase (Tables 9-11); assay type: biochemical; settings: Table 9, beta-lactams; 30° C., pH 8.0
Experimental: the activity of phthalyl amidase against 25 compounds was determined. The compounds were divided into beta-lactams (Table 9), phthalyl amides (Table 10), and aromatic ring substituted amides (Table 11). Each reaction mixture (1 ml total volume) contained 2.5 μmol of compound and 0.3 units of enzyme (based on the chromogenic substrate) of the preparative scale purified enzyme, in 50 mM phosphate buffer, pH 8.0. The reactions were conducted at 30° C. Samples of the reaction mixture were taken at various times, and methanol (equal value) was added to stop the reaction. The samples were examined by HPLC to determine the extent of substrate hydrolysis. The amount of compound hydrolyzed was calculated from a standard curve of the test compound. All substrates were stable in buffer at 30° C. and pH 8.0 in the absence of enzyme for 24 hours.

[5] = Stability of phthalyl amidase: effect of ionic strength and pH; assay type: physicochemical; settings: 200 mM salt added to 20 mM buffer
Experimental: The stability of phthalyl amidase at pH values ranging from 6-9 was determined as described in Example 5 at 30° C. in both 20 and 200 mM potassium phosphate buffer. […] In 200 mM buffer, the enzyme retained at least 80% of its activity for 100 hours irrespective of the pH of the incubating medium.

phthalyl amidase [6] = target: T1, phthalyl amidase; test: Influence of effectors and organic solvents on phthalyl amidase activity; assay type: biochemical
Experimental: A typical reaction mixture consisted of 1 ml total volume and contained 0.1 mM III, 0.1 μM phthalyl amidase in 50 mM potassium phosphate buffer (pH 5.5-9.0) at 32° C. for 20 minutes. The reactions were stopped by the addition of 1 ml methanol. After removal of precipitate by centrifugation, an aliquot of the supernatant fraction (typically 30 μl) was monitored for the beta-lactam nucleus and phthalic acid by HPLC using a Zorbax C8 column (0.46×15 cm; MacMod Analytical Inc., Chadds Ford, Pa.). The two reaction products were eluted by a mobile phase constructed as continuous mixed gradients from (a) 1% ACN (acetonitrile)/0.2% TFA (trifluoroacetic acid) and (b) 80% ACN/0.2% TFA as follows: 1) 0% (b), 3min; 2) 0-50% (b), 0.5 min; 3) 50-100% (b), 3 min; 4) 100% (b), 2.5 min; 5) 100-1% (b), 0.1 min; and 6) 0% (b), 5 min.
The effect of various agents on the enzymatic activity of phthalyl amidase was determined using standard conditions (see Example 5). All agents were tested at 1 mM final concentration unless otherwise indicated.

T1 sequence (P0C2Y0 2-453): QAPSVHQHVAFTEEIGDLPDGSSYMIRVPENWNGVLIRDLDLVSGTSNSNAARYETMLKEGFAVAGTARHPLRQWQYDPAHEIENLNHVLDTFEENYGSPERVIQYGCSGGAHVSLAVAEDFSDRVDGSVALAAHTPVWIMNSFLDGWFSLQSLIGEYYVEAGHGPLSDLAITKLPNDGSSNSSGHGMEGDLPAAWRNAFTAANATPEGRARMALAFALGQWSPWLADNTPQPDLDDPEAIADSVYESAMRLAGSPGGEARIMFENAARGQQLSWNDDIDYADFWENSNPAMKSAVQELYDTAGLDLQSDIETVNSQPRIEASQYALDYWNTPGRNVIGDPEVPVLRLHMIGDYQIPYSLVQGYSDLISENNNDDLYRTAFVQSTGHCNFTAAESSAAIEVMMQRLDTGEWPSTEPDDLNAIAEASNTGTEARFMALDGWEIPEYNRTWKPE

SMILES: O=C(O)C1=C(Cl)CCC2C(NC(=O)c3ccccc3C(=O)O)C(=O)N12 (centres unmarked) [III, 7-phthalamido-3-chloro-4-carboxy-1-carba-dethioceph-3-em]
- Km (phthalyl amidase [1]): 900 µM
- Vmax (phthalyl amidase [1]): 7.6 μmol/sec/μmol
- Relative Activity (phthalyl amidase [2]; 2 minutes): 100
- hydrolyzed (phthalyl amidase [3]): 90.0%
- Relative Activity (phthalyl amidase [4]): 100

SMILES: O=C(O)c1ccccc1C(=O)Nc1ccccc1 [Compound XXXI]
- substrate preference (phthalyl amidase [2]): twice that of compound III
- Relative Activity (phthalyl amidase [2]; 2 minutes): 200

SMILES: O=C(O)c1ccccc1C(=O)N[C@H](C(=O)O)c1ccccc1 [Compound XXX, N-phthalyl-phenylglycine]
- substrate preference (phthalyl amidase [2]): poor substrates for the enzyme
- substrate preference (phthalyl amidase [2]; listed as L isomer): extremely poor substrate
- Relative Activity (phthalyl amidase [2]; run for a longer time period): 1.3

SMILES: O=C(O)C1=C(Cl)CCC2C(N3C(=O)c4ccccc4C3=O)C(=O)N12 (centres unmarked) [XXXIII, Phthalimido carbacephem]
- hydrolyzed (phthalyl amidase [3]): 98%

SMILES: [Cl-].[K+] [KCl, reference compound]
- protection of enzyme against activity loss [5]: protected against activity loss
- % of Control Activity (phthalyl amidase [6]; 1 mM agent): 100%

SMILES: O=C(Nc1ccccc1)c1ccccc1S(=O)(=O)O [XXXII]
- substrate preference (phthalyl amidase [2]): poor substrates for the enzyme
- Relative Activity (phthalyl amidase [2]; run for a longer time period): 0.0

SMILES: [Cl-].[Na+] [NaCl, reference compound]
- protection of enzyme against activity loss [5]: protected against activity loss
- % of Control Activity (phthalyl amidase [6]): 104%
